Data on 18 compounds can be found in article PMC7224224, “Synthesis of diindolylmethane (DIM) bearing thiadiazole derivatives as a potent urease inhibitor” (Scientific Reports, 2020).

One data set has as its target jack bean urease (Canavalia ensiformis, UniProt P07374). The data set is described as follows: biochemical. The method, then:
Urease is an enzyme (jack bean urease) that catalyzes the hydrolysis of urea into carbon dioxide and ammonia. The production of ammonia was measured by the indophenol method and used to determine the urease inhibitory activity[57],[58]. The percentage remaining activity was calculated from the formula % Remaining Activity = [(ODtest)/(ODcontrol) × 100]. Thiourea was used as a standard inhibitor. To calculate IC50 values, different concentrations of synthesized compounds and standards were assayed at the same reaction conditions.

Chain of jack bean urease (P07374 whole entry, looked up): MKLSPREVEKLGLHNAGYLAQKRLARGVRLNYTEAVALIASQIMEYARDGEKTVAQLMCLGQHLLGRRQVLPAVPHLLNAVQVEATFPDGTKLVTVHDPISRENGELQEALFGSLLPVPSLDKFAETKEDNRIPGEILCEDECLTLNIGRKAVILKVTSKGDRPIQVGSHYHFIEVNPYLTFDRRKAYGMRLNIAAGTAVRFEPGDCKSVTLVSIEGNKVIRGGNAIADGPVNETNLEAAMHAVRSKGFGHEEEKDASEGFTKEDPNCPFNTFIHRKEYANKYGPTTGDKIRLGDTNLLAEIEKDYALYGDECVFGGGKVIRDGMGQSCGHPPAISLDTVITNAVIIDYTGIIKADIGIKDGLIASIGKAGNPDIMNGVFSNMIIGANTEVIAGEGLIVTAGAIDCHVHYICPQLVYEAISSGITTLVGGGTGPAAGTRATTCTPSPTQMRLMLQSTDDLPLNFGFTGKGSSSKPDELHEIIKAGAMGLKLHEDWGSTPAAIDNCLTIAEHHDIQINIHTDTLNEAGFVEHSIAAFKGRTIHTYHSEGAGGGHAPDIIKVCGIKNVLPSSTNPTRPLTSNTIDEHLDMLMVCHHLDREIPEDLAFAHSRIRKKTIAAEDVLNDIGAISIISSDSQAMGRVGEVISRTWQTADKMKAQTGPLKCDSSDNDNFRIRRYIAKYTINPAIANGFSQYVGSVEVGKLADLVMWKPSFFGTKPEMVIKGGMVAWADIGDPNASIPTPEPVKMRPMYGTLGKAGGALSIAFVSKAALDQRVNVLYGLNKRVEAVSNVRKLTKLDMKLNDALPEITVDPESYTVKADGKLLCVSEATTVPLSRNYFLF

Turning to `Cc1ccc([N+](=O)[O-])c(S(=O)(=O)Nc2nnc(-c3ccc(C(c4c[nH]c5ccc(Br)cc45)c4c[nH]c5ccc(Br)cc45)cc3)s2)c1` [Compound 13, N-(5-(4-(bis(5-bromo-1H-indol-3-yl)methyl)phenyl)-1,3,4-thiadiazol-2-yl)-5 methyl-2-nitrobenzenesulfonamide], the melting point lay within 312 to 313 °C. This compound returned an IC50 at jack bean urease of 5.1 ± 0.1 µM.
`O=S(=O)(Nc1nnc(-c2ccc(C(c3c[nH]c4ccc(Br)cc34)c3c[nH]c4ccc(Br)cc34)cc2)s1)c1ccc(Cl)cc1Cl` [Compound 7, N-(5-(4-(bis(5-bromo-1H-indol-3-yl)methyl)phenyl)-1,3,4-thiadiazol-2-yl)-2,4-dichlorobenzenesulfonamide] returned a half-maximal inhibitory concentration (IC50) on jack bean urease of 2.3 ± 0.1 µM.
Turning to `Cc1cccc(S(=O)(=O)Nc2nnc(-c3ccc(C(c4c[nH]c5ccc(Br)cc45)c4c[nH]c5ccc(Br)cc45)cc3)s2)c1` [Compound 17, N-(5-(4-(bis(5-bromo-1H-indol-3-yl)methyl)phenyl)-1,3,4-thiadiazol-2-yl)-3-methylbenzenesulfonamide], the melting point lay within 289 to 290 °C. At jack bean urease, this compound gave an IC50 of 28.6 ± 1.2 µM.
At jack bean urease, `COc1ccc(O)c(S(=O)(=O)Nc2nnc(-c3ccc(C(c4c[nH]c5ccc(Br)cc45)c4c[nH]c5ccc(Br)cc45)cc3)s2)c1` [Compound 4, N-(5-(4-(bis(5-bromo-1H-indol-3-yl)methyl)phenyl)-1,3,4-thiadiazol-2-yl)-2-hydroxy-5-methoxybenzenesulfonamide] gave an IC50 of 2.2 ± 0.1 µM.
The compound `Cc1ccccc1S(=O)(=O)Nc1nnc(-c2ccc(C(c3c[nH]c4ccc(Br)cc34)c3c[nH]c4ccc(Br)cc34)cc2)s1` [Compound 16, N-(5-(4-(bis(5-bromo-1H-indol-3-yl)methyl)phenyl)-1,3,4-thiadiazol-2-yl)-2-methylbenzenesulfonamide] returned a melting point of 291 to 292 °C. This compound also registered an IC50 against jack bean urease of 23.8 ± 1 µM.
For `O=S(=O)(Nc1nnc(-c2ccc(C(c3c[nH]c4ccc(Br)cc34)c3c[nH]c4ccc(Br)cc34)cc2)s1)c1ccccc1` [Compound 1, N-(5-(4-(bis(5-bromo-1H-indol-3-yl)methyl)phenyl)-1,3,4-thiadiazol-2-yl)benzenesulfonamide], in that order: 301 to 302 °C and 13.2 ± 0.3 µM.
`O=[N+]([O-])c1ccc(S(=O)(=O)Nc2nnc(-c3ccc(C(c4c[nH]c5ccc(Br)cc45)c4c[nH]c5ccc(Br)cc45)cc3)s2)c([N+](=O)[O-])c1` [Compound 8, N-(5-(4-(bis(5-bromo-1H-indol-3-yl)methyl)phenyl)-1,3,4-thiadiazol-2-yl)-2,4-dinitrobenzenesulfonamide] had an IC50 at jack bean urease of 0.5 ± 0.01 µM.
The compound `COc1ccc(Cl)cc1S(=O)(=O)Nc1nnc(-c2ccc(C(c3c[nH]c4ccc(Br)cc34)c3c[nH]c4ccc(Br)cc34)cc2)s1` [Compound 5, N-(5-(4-(bis(5-bromo-1H-indol-3-yl)methyl)phenyl)-1,3,4-thiadiazol-2-yl)-5-chloro-2-methoxybenzenesulfonamide] gave a melting point of 315 to 316 °C. This compound also yielded an IC50 against jack bean urease of 7.3 ± 0.1 µM.
With `O=[N+]([O-])c1ccccc1S(=O)(=O)Nc1nnc(-c2ccc(C(c3c[nH]c4ccc(Br)cc34)c3c[nH]c4ccc(Br)cc34)cc2)s1` [Compound 3, N-(5-(4-(bis(5-bromo-1H-indol-3-yl)methyl)phenyl)-1,3,4-thiadiazol-2-yl)-2-nitrobenzenesulfonamide], the melting point was 314 to 315 °C. Besides, the concentration for half-maximal inhibition (IC50) on jack bean urease turned out to be 1.1 ± 0.01 µM.
The compound `O=[N+]([O-])c1ccc(S(=O)(=O)Nc2nnc(-c3ccc(C(c4c[nH]c5ccc(Br)cc45)c4c[nH]c5ccc(Br)cc45)cc3)s2)cc1` [Compound 2, N-(5-(4-(bis(5-bromo-1H-indol-3-yl)methyl)phenyl)-1,3,4-thiadiazol-2-yl)-4-nitrobenzenesulfonamide] had a melting point of 312 to 313 °C. The IC50 against jack bean urease is 1.8 ± 0.01 µM.
The like results for `O=S(=O)(Nc1nnc(-c2ccc(C(c3c[nH]c4ccc(Br)cc34)c3c[nH]c4ccc(Br)cc34)cc2)s1)c1ccc(Cl)c(Cl)c1` [Compound 10, N-(5-(4-(bis(5-bromo-1H-indol-3-yl)methyl)phenyl)-1,3,4-thiadiazol-2-yl)-3,4-dichlorobenzenesulfonamide] were, in that order, 302 to 303 °C and 1.6 ± 0.01 µM.
For `COc1ccc(Br)c(S(=O)(=O)Nc2nnc(-c3ccc(C(c4c[nH]c5ccc(Br)cc45)c4c[nH]c5ccc(Br)cc45)cc3)s2)c1` [Compound 14, N-(5-(4-(bis(5-bromo-1H-indol-3-yl)methyl)phenyl)-1,3,4-thiadiazol-2-yl)-2-bromo-5-methoxybenzenesulfonamide], the melting point lay within 309 to 310 °C. Also, on jack bean urease, the IC50 turned out to be 19.8 ± 0.8 µM.
The like results for `COc1ccc([N+](=O)[O-])c(S(=O)(=O)Nc2nnc(-c3ccc(C(c4c[nH]c5ccc(Br)cc45)c4c[nH]c5ccc(Br)cc45)cc3)s2)c1` [Compound 15, N-(5-(4-(bis(5-bromo-1H-indol-3-yl)methyl)phenyl)-1,3,4-thiadiazol-2-yl)-5-methoxy-2-nitrobenzenesulfonamide] were, in that order, 308 to 309 °C and 3.9 ± 0.1 µM.
`Cc1ccc(S(=O)(=O)Nc2nnc(-c3ccc(C(c4c[nH]c5ccc(Br)cc45)c4c[nH]c5ccc(Br)cc45)cc3)s2)cc1` [Compound 18, N-(5-(4-(bis(5-bromo-1H-indol-3-yl)methyl)phenyl)-1,3,4-thiadiazol-2-yl)-4-methylbenzenesulfonamide] gave a melting point of 285 to 286 °C. Moreover, on jack bean urease, the IC50 is 20.4 ± 1.2 µM.
`Cc1ccc(Cl)c(S(=O)(=O)Nc2nnc(-c3ccc(C(c4c[nH]c5ccc(Br)cc45)c4c[nH]c5ccc(Br)cc45)cc3)s2)c1` [Compound 12, N-(5-(4-(bis(5-bromo-1H-indol-3-yl)methyl)phenyl)-1,3,4-thiadiazol-2-yl)-2-chloro-5-methylbenzenesulfonamide] gave a melting point of 301 to 302 °C. For the same compound, half-maximal inhibition against jack bean urease (IC50) was put at 8.5 ± 0.3 µM.
`O=S(=O)(Nc1nnc(-c2ccc(C(c3c[nH]c4ccc(Br)cc34)c3c[nH]c4ccc(Br)cc34)cc2)s1)c1ccc2ccccc2c1` [Compound 11, N-(5-(4-(bis(5-bromo-1H-indol-3-yl)methyl)phenyl)-1,3,4-thiadiazol-2-yl)naphthalene-2-sulfonamide] came in with a melting point of 313 to 314 °C. The same compound gave a half-maximal inhibitory concentration (IC50) at jack bean urease of 33.2 ± 1.2 µM.
The like results for `O=[N+]([O-])c1ccc(S(=O)(=O)Nc2nnc(-c3ccc(C(c4c[nH]c5ccc(Br)cc45)c4c[nH]c5ccc(Br)cc45)cc3)s2)cc1Cl` [Compound 9, N-(5-(4-(bis(5-bromo-1H-indol-3-yl)methyl)phenyl)-1,3,4-thiadiazol-2-yl)-3-chloro-4-nitrobenzenesulfonamide] were, in that order, 318 to 319 °C and 1.1 ± 0.01 µM.
Turning to `O=S(=O)(Nc1nnc(-c2ccc(C(c3c[nH]c4ccc(Br)cc34)c3c[nH]c4ccc(Br)cc34)cc2)s1)c1cc(Cl)c(Cl)cc1Cl` [Compound 6, N-(5-(4-(bis(5-bromo-1H-indol-3-yl)methyl)phenyl)-1,3,4-thiadiazol-2-yl)-2,4,5-trichlorobenzenesulfonamide], the melting point was in the range of 299 to 300 °C. Moreover, the IC50 against jack bean urease was 0.7 ± 0.01 µM.

For orientation: IC50 means the concentration needed to halve the response being measured. A low value points to greater potency in that assay. For orientation: melting point means the temperature, or range, at which the solid turns liquid.
